pIC50: −log10 of the molar value.
Assays:
HeLa T-Rex cells = test: Gamma-H2AX In-Cell Western assay (doxorubicin-induced DNA damage); assay type: cell-based; settings: Homo sapiens, HeLa; 30 minutes pretreatment, then 1 μM doxorubicin for 2 hours; read-out: IC50, suppression of doxorubicin-induced γH2AX signal
Experimental: In-Cell Western analysis was carried out as follows. HeLa T-Rex cells were seeded at the cell density of 15 × 10^3 cells per well in black 96-well plates (Greiner Bio-one Vacuette, St Gallen, Switzerland). The day post-seeding, cells were pretreated with increasing concentrations of either ICRF-193, QAP 1 or vehicle (DMSO) for 30 minutes followed by a 2 hours treatment with 1 μM of doxorubicin, or were only treated with the same concentrations of ICRF-193, QAP 1 or vehicle (DMSO) for 2 hours. Treatments were done in triplicate. […] Finally, cells were washed 4 times with 50 μl per well of PBS containing 0.1% Tween-20 for 3 minutes, liquid was removed and plates were kept at 4°C until reading. γH2AX signals were read using the LI-COR Odyssey Infrared Imager with the Odyssey v1.1 software using the 800 nm channel. Blank values correspond to non-specific γH2AX signal detected in wells without primary antibody staining. […] The resulting values for each sample were normalized to the DNA quantity by measuring the corresponding TO-PRO-3 iodide signals. The TO-PRO-3 iodine signals were detected by using the 700 nm channel. The percentage of γH2AX signal was determined for each concentration of ICRF193 and QAP 1 with or without doxorubicin treatment by setting the value for the treatment with vehicle and 1 μM doxorubicin to 100%. […]

[1] = system: topoisomerase II from nuclear extracts of HL-60 cells; test: DNA decatenation assay with HL-60 nuclear extracts (kDNA); assay type: biochemical, human; settings: catenated kDNA, 450 μM ATP, read-out: mean IC50, inhibition of DNA decatenation
Experimental: Reagents for the assay were purchased from TopoGEN (catalog number 1001–1, TopoGEN, Inc., Port Orange, FL). Topoisomerase II was extracted according to the manufacturer's instructions from nuclei of HL-60 cells (ATCC; American Type Culture Collection, Manassas, Virginia, USA) and contained both isoforms as assessed by Western blotting. Calculation of specific topoisomerase II decatenation activity was based on complete decatenation of a given amount of catenated input DNA (100 ng kDNA) by a defined amount of nuclear extract containing the alpha and beta isoforms or of a defined amount of purified enzyme in a particular amount of time. The topoisomerase II activity from nuclei decatenated 0.07 ng catenated kDNA · min^-1 · ng^-1 extract. Purified topoisomerase II alpha (see above) decatenated 0.13 ng catenated kDNA · min^-1 · ng^-1. Vehicle (DMSO) or drug substance at concentrations to yield the desired end concentrations were added and samples were preincubated for 5 minutes at 37°C and 400 rpm in an Eppendorf thermomixer. Reactions were started by adding ATP (to 450 μM final concentration) to each sample and incubation was continued for 20 minutes. […] Gels were analyzed under a UV transilluminator and decatenated kDNA products were quantified using AlphaEaseFC (FluorChem 8900) image analysis software version 3.2.3 (Alpha Innotech, San Leandro, CA).

pIC50 [1]: 6.11
Compound: CCc1nc2nc(Nc3ccc4nc(OCCN5CCOCC5)ccc4c3)nc(NC(C)(C)C)c2[nH]1 [QAP 1]
pIC50 (HeLa T-Rex cells): ~5.96

From paper PMC2628638, “Catalytic inhibition of topoisomerase II by a novel rationally designed ATP-competitive purine analogue” (BMC Chemical Biology, 2009)
